{"source": "patent US4127522A", "about": "“Novel triacontapeptides, intermediates therefor and pharmaceutical compositions and methods employing said triacontapeptides” (priority 1977, dated 1978)", "origin": "cited, not measured here", "key": {"[1]": {"tested_on": "partially purified brain opiate receptor sites", "conditions": "natural peptide; Bradbury et al."}, "[2]": {"conditions": "injected directly into the brain of the rat; Belluzzi et al."}}, "data": [{"substance": "H-Tyr-Gly-Gly-Phe-Met-OH [methionine enkephalin]", "values": [{"measurement": "binding to partially purified brain opiate receptor sites", "setting": "[1]", "result": "binds stereo-specifically"}, {"measurement": "activity in bioassays for opiate activity", "setting": "opiate activity", "result": "very active"}, {"measurement": "analgesic activity", "setting": "[2]", "result": "only weak analgesic agent of short duration"}]}]}
